Patent US9089587B2, “Treatment of papulopustular rosacea with ivermectin” (Galderma S.A., priority 2013, dated 2015)

What was measured:
[1] = test system: subjects with moderate or severe papulopustular rosacea; experiment: Study 1 and Study 2: once-daily ivermectin 1% cream vs vehicle, first part, 12 weeks (Example 3); type: in vivo, human
Experimental: Both studies were conducted in accordance with the ethical principles of the Declaration of Helsinki and Good Clinical Practices, and in compliance with local regulatory requirements.
Each study had three parts. In the first part of the study, subjects with PPR were treated with ivermectin 1% cream (IVM 1%) or vehicle once daily at bedtime for 12 weeks. In the second part of the study, subjects initially treated with IVM 1% once daily at bedtime continued the same treatment, while subjects treated with the vehicle once daily switched to topical treatment with azelaic acid 15% gel twice daily, in the morning and evening. The third part of the study consisted of 4 weeks safety follow-up, without treatment. […]
Efficacy assessments at each visit were the IGA of disease severity, and inflammatory lesion counts (papules and pustules) on each of the five facial regions (forehead, chin, nose, right cheek, left cheek). Safety assessments included adverse events (AEs) throughout the study, local tolerance parameters (stinging/burning, dryness, itching) at each study visit evaluated on a 4-point scale [from 0 (none) to 3 (severe)], and laboratory parameters (hematology and biochemistry) measured before and after treatment. […]

[2] = test system: subjects with moderate or severe papulopustular rosacea; experiment: Ivermectin 1% cream vs metronidazole 0.75% cream, Period A, 16 weeks (Example 4); type: in vivo, human; conditions: week 12 (highest difference)
Text: Study visits during Period A were as follows: a screening visit, and at baseline, weeks 3, 6, 9, 12 and 16.
Eligible subjects were 18 years or older, with moderate or severe papulopustular rosacea as noted by an IGA of 3 (“several small or large papules/pustules, moderate erythema”) or 4 (“numerous small and/or large papules/pustules, severe erythema”), and presenting with 15-70 facial inflammatory lesions (papules and pustules).
The subjects were instructed to maintain a consistent lifestyle throughout the study regarding rosacea triggers (i.e. avoiding environmental factors, certain foods, and excessive sun exposure).
Efficacy assessments at each visit were inflammatory lesion counts (papules and pustules) counted on five facial regions (forehead, chin, nose, right cheek, left cheek), and the Investigator's Global Assessment (IGA) of disease severity. Safety assessments included adverse events (AEs) throughout the study, local tolerance parameters (stinging/burning, dryness, itching) at each visit evaluated on a 4-point scale (from 0 (none) to 3 (severe)), and laboratory parameters measured at baseline, weeks 9 and 16. Other assessments included the subject's evaluation of rosacea improvement compared to their condition at baseline, and subject's appreciation questionnaire at the end of the study (regarding satisfaction with the study drug). […]

5-O-demethyl-22,23-dihydroavermectin A1a plus 5-O-demethyl-25-de(1-methylpropyl)-25-(1-methylethyl)-22,23-dihydroavermectin A1a [ivermectin]
median reduction from baseline in inflammatory lesion counts ([1]; Study 1, week 2): about 30%
median reduction from baseline in inflammatory lesion counts ([1]; Study 2, week 2): 27.3%
difference in IGA success rate, ivermectin superior to metronidazole [2]: 14.9%
